Structures are written as SMILES.

The values that follow come from patent US9296758B2, “2-quinolinyl-acetic acid derivatives as HIV antiviral compounds” (GILEAD SCIENCES, INC., priority 2010, dated 2016).

The subject of one assay is HIV-IIIb. In words: Test A: Antiviral Assays in MT4 Cells. The format is cell-based. The note with it: Human immunodeficiency virus 1, IIIB, MT4, 120 h, MT-4 cells infected with HIV-IIIb (0.004 m.o.i.), 5 days of incubation, CellTiter-Glo chemiluminescence readout. The protocol:
Test A: Antiviral Assays in MT4 Cells For the antiviral assay utilizing MT-4 cells, 0.4 μL of 189X test concentration of 3-fold serially diluted compound in DMSO was added to 40 μL of cell growth medium (RPMI 1640, 10% FBS, 1% penicillin/Streptomycin, 1% L-Glutamine, 1% HEPES) in each well of 384-well assay plates (10 concentrations) in quadruplicate. 1 mL aliquots of 2×10e6 MT-4 cells are pre-infected for 1 and 3 hrs respectively, @ 37° C. with 25 μL (MT4) or of either cell growth medium (mock-infected) or a fresh 1:250 dilution of an HIV-IIIb concentrated ABI stock (0.004 m.o.i. for MT4 cells). Infected and uninfected cells are diluted in cell growth medium and 35 uL of 2000 (for MT4) cells is added to each well of the assay plates. Assay plates were then incubated in a 37° C. incubator. After 5 days of incubation, 25 μl of 2× concentrated CellTiter-Glo™ Reagent (catalog #G7573, Promega Biosciences, Inc., Madison, Wis.) was added to each well of the assay plate. Cell lysis was carried out by incubating at room temperature for 2-3 min and then chemiluminescence was read using the Envision reader (PerkinElmer).
Background: In ATP-based viability assays light output follows the ATP content of the culture.
As for `Cc1cc2nc(CCC3CC3)ccc2c(-c2ccc3c4c(ccnc24)CCO3)c1[C@H](OC(C)(C)C)C(=O)O` (atropisomer, axis not shown) [Compound 43, (S)-2-tert-Butoxy-2-((R)-2-(2-cyclopropylethyl)-5-(2,3-dihydropyrano[4,3,2-de]quinolin-7-yl)-7-methylquinolin-6-yl)acetic acid], the half-maximal effective concentration (EC50) (usually the concentration needed to bring the measured effect to its halfway point) came to 27 nM.
The same measure, in the same setting: with `Cc1cc2nc(CC(C)C)ccc2c(-c2ccc3c4c(ccnc24)CCO3)c1[C@H](OC(C)(C)C)C(=O)O` (atropisomer, axis not shown) [Compound 50, (S)-2-tert-butoxy-2-((R)-5-(2,3-dihydropyrano[4,3,2-de]quinolin-7-yl)-2-isobutyl-7-methylquinolin-6-yl)acetic acid] the figure was 24 nM; with `Cc1cc2nc(-c3cncn3C)ccc2c(-c2ccc(Cl)cc2)c1[C@H](OC(C)(C)C)C(=O)O` [Compound 82, (S)-2-tert-Butoxy-2-(5-(4-chlorophenyl)-7-methyl-2-(1-methyl-1H-imidazol-5-yl)quinolin-6-yl)acetic acid], 171 nM; with `Cc1cc2nc(-c3cncnc3)ccc2c(-c2ccc3c4c(ccnc24)CCO3)c1[C@H](OC(C)(C)C)C(=O)O` (atropisomer, axis not shown) [Compound 72, (S)-2-tert-Butoxy-2-((R)-5-(2,3-dihydropyrano[4,3,2-de]quinolin-7-yl)-7-methyl-2-(pyrimidin-5-yl)quinolin-6-yl)acetic acid], 194 nM.
As for `Cc1cc2nc(-c3nccn3C)ccc2c(-c2ccc3c4c(ccnc24)CCO3)c1[C@H](OC(C)(C)C)C(=O)O` (atropisomer, axis not shown) [Compound 84, (S)-2-tert-Butoxy-2-((R)-5-(2,3-dihydropyrano[4,3,2-de]quinolin-7-yl)-7-methyl-2-(1-methyl-1H-imidazol-2-yl)quinolin-6-yl)acetic acid], the EC50 is 330 nM.
On the same count and under the same terms, to `Cc1cc2c(ccc(C)[n+]2[O-])c(-c2ccc3c4c(ccnc24)CCO3)c1[C@H](OC(C)(C)C)C(=O)O` [Compound 22, (R)-6-((S)-tert-butoxy(carboxy)methyl)-5-(2,3-dihydropyrano[4,3,2-de]quinolin-7-yl)-2,7-dimethylquinoline 1-oxide] belongs 1080 nM; to `Cc1cc2nc(C3CC3)ccc2c(-c2ccc(Cl)cc2)c1[C@H](OC(C)(C)C)C(=O)O` [Compound 28, (S)-2-tert-butoxy-2-(5-(4-chlorophenyl)-2-cyclopropyl-7-methylquinolin-6-yl)acetic acid], 43 nM.
On the same count and under the same terms, to `CCOCc1ccc2c(-c3ccc(Cl)cc3)c([C@H](OC(C)(C)C)C(=O)O)c(C)cc2n1` [Compound 15, (S)-2-tert-butoxy-2-(5-(4-chlorophenyl)-2-(ethoxymethyl)-7-methylquinolin-6-yl)acetic acid] belongs 334 nM.
Turning to `Cc1cc2nc(C#CC3CC3)ccc2c(-c2ccc3c4c(ccnc24)CCO3)c1[C@H](OC(C)(C)C)C(=O)O` (atropisomer, axis not shown) [Compound 42, (S)-2-tert-butoxy-2-((R)-2-(cyclopropylethynyl)-5-(2,3-dihydropyrano[4,3,2-de]quinolin-7-yl)-7-methylquinolin-6-yl)acetic acid], a half-maximal response (EC50) required 46 nM.
Same read-out and setting: with `Cc1cc2nc(C3CCCC3)ccc2c(-c2ccc3c4c(ccnc24)CCO3)c1[C@H](OC(C)(C)C)C(=O)O` (atropisomer, axis not shown) [Compound 51, (S)-2-tert-Butoxy-2-((R)-2-cyclopentyl-5-(2,3-dihydropyrano[4,3,2-de]quinolin-7-yl)-7-methylquinolin-6-yl)acetic acid] the figure was 30 nM.
The same measure, in the same setting: with `Cc1cc2c(ccc3nc(-c4ccccc4)cn32)c(-c2ccc3c4c(ccnc24)CCO3)c1[C@H](OC(C)(C)C)C(=O)O` (atropisomer, axis not shown) [Compound 61, (S)-2-tert-Butoxy-2-((R)-6-(2,3-dihydropyrano[4,3,2-de]quinolin-7-yl)-8-methyl-2-phenylimidazo[1,2-a]quinolin-7-yl)acetic acid] the figure was 119 nM; with `Cc1cc2nc(OCc3ccccc3)ccc2c(-c2ccc(Cl)cc2)c1[C@H](OC(C)(C)C)C(=O)O` [Compound 65A, (S)-2-(2-(benzyloxy)-5-(4-chlorophenyl)-7-methylquinolin-6-yl)-2-tert-butoxyacetic acid], 85 nM.
Same read-out and setting: to `Cc1cc2nc(CN(C)C)ccc2c(C2=CCCCC2)c1[C@H](OC(C)(C)C)C(=O)O` [Compound 25, (S)-2-tert-butoxy-2-(5-cyclohexenyl-2-((dimethylamino)methyl)-7-methylquinolin-6-yl)acetic acid] belongs 346 nM; to `C=CCCc1ccc2c(-c3ccc4c5c(ccnc35)CCO4)c([C@H](OC(C)(C)C)C(=O)O)c(C)cc2n1` (atropisomer, axis not shown) [Compound 48, (S)-2-((R)-2-(but-3-enyl)-5-(2,3-dihydropyrano[4,3,2-de]quinolin-7-yl)-7-methylquinolin-6-yl)-2-tert-butoxyacetic acid], 26 nM; to `Cc1cc2nc(C(C)C)ccc2c(-c2ccc(Cl)cc2)c1[C@H](OC(C)(C)C)C(=O)O` [Compound 90, (S)-2-tert-butoxy-2-(5-(4-chlorophenyl)-2-isopropyl-7-methylquinolin-6-yl)acetic acid], 67 nM.
For the compound `COC(=O)c1ccc2c(-c3ccc(Cl)cc3)c([C@H](OC(C)(C)C)C(=O)O)c(C)cc2n1` [Compound 12, (S)-2-tert-Butoxy-2-(5-(4-chlorophenyl)-2-(methoxycarbonyl)-7-methylquinolin-6-yl)acetic acid], the EC50 was 210 nM.
On the same count and under the same terms, with `Cc1cc2nc(C(F)(F)F)ccc2c(-c2ccc(Cl)cc2)c1[C@H](OC(C)(C)C)C(=O)O` [Compound 7J, (S)-2-tert-butoxy-2-(5-(4-chlorophenyl)-7-methyl-2-(trifluoromethyl)quinolin-6-yl)acetic acid] the figure was 160 nM; with `Cc1cc2nc(N3CCCC3)ccc2c(-c2ccc3c4c(ccnc24)CCO3)c1[C@H](OC(C)(C)C)C(=O)O` [Compound 94, (S)-2-tert-butoxy-2-((R)-5-(2,3-dihydropyrano[4,3,2-de]quinolin-7-yl)-7-methyl-2-(pyrrolidin-1-yl)quinolin-6-yl)acetic acid], 149 nM; with `Cc1cc2nc(-n3ccnc3)ccc2c(-c2ccc(Cl)cc2)c1[C@H](OC(C)(C)C)C(=O)O` [Compound 91, (S)-2-tert-Butoxy-2-(5-(4-chlorophenyl)-2-(1H-imidazol-1-yl)-7-methylquinolin-6-yl)acetic acid], 73 nM.
Compound `Cc1cc2nc(N(C)C)ccc2c(-c2ccc(Cl)cc2)c1[C@H](OC(C)(C)C)C(=O)O` [Compound 32, (S)-2-tert-Butoxy-2-(5-(4-chlorophenyl)-2-(dimethylamino)-7-methylquinolin-6-yl)acetic acid] gave an EC50 of 108 nM.
Consider `Cc1cc2nc(C(=O)N(C)c3ccccc3)ccc2c(-c2ccc(Cl)cc2)c1[C@H](OC(C)(C)C)C(=O)O` [Compound 17, (S)-2-tert-butoxy-2-(5-(4-chlorophenyl)-7-methyl-2-(methyl(phenyl)carbamoyl)quinolin-6-yl)acetic acid], for which the EC50 stood at 359 nM.
Still for that read-out and setting: to `Cc1cc2nc(C(C)(C)C)ccc2c(-c2ccc3c4c(ccnc24)CCO3)c1[C@H](OC(C)(C)C)C(=O)O` [Compound 36, (S)-2-tert-butoxy-2-((R)-2-tert-butyl-5-(2,3-dihydropyrano[4,3,2-de]quinolin-7-yl)-7-methylquinolin-6-yl)acetic acid] belongs 20 nM; to `Cc1cc2nc(CCC3CC3)ccc2c(-c2ccc(Cl)cc2)c1[C@H](OC(C)(C)C)C(=O)O` [Compound 39, (S)-2-tert-butoxy-2-(5-(4-chlorophenyl)-2-(2-cyclopropylethyl)-7-methylquinolin-6-yl)acetic acid], 11 nM; to `Cc1ccc2c(-c3ccc4c5c3CCCN5CCO4)c([C@H](OC(C)(C)C)C(=O)O)c(C)cc2n1` [Compound 103, (2S)-2-tert-butoxy-2-(2,7-dimethyl-5-(3,5,6,7-tetrahydro-2H-[1,4]oxazino[2,3,4-ij]quinolin-8-yl)quinolin-6-yl)acetic acid], 25 nM.
As to `COCCOCCCNc1ccc2c(-c3ccc(Cl)cc3)c([C@H](OC(C)(C)C)C(=O)O)c(C)cc2n1` [Compound 35, (S)-2-tert-butoxy-2-(5-(4-chlorophenyl)-2-(3-(2-methoxyethoxy)propylamino)-7-methylquinolin-6-yl)acetic acid], the concentration giving a half-maximal response (EC50) worked out at 157 nM.

The same assay, now with this note: MT-4 cells infected with HIV-IIIb (0.004 m.o.i.), 5 days of incubation, CellTiter-Glo chemiluminescence readout.
Compound `Cc1ccc2c(-c3ccc4c5c(ccnc35)CCO4)c([C@H](OC(C)(C)C)C(=O)O)c(C)cc2n1` [Compound 23, (S)-2-tert-Butoxy-2-((S)-5-(2,3-dihydropyrano[4,3,2-de]quinolin-7-yl)-2,7-dimethylquinolin-6-yl)acetic acid] came in with a concentration for a half-maximal effect (EC50) of 26200 nM.
On to `Cc1ccc2c(-c3ccc4c(c3Cl)NCCO4)c([C@H](OC(C)(C)C)C(=O)O)c(C)cc2n1` (atropisomer, axis not shown) [Compound 105], for which the EC50 was determined as 105 nM.
The same measure, in the same setting: to `Cc1ccc2c(-c3ccc(Cl)cc3Cl)c([C@H](OC(C)(C)C)C(=O)O)c(C)cc2n1` [Compound 104] belongs 720 nM.
